The subject of assay [1] is binding between IgA and CD89. Briefly: Blocking assay: two-dimensional polymorphonuclear cell migration to IgA-coated beads. The format is cell-based, human. The following applies: for blocking of the IgA-CD89 interaction / reduction of polymorphonuclear cell migration to IgA-beads (in words): polymorphonuclear cells; for blocking of the interaction between IgA and CD89: PKH67-polymorphonuclear cells, blocker 1-100 μg/ml, 20' at 37° C., assay of example 4. The method, then: FIG. 6. IgA-induced migration can be reduced by interfering with IgA-CD89 interactions. Percentage inhibition of polymorphonuclear cell migration in the presence of 3 different anti-FcαRI mAb (white bars), 6 peptides that mimic either the IgA binding site on CD89 or the CD89 binding site on IgA (black bars) or a soluble variant of CD89 or FcαRI (sFcalphaRI, grey bar).
PKH67-polymorphonuclear cells (2.5×10^5 cells/well) were seeded in 96 wells flat bottom plates (Greiner), after which immunoglobulin-coated beads (10 μl/well) were added. For binding assays, cells were kept at 4° C. For migration assays, cells were incubated for 20′ 37° C., after which cell suspensions were collected and beads were washed 2 times with PBS to remove unbound PKH67-polymorphonuclear cells. Beads were incubated with a buffer containing 2.0 g/l hexadecyltrimethyl ammonium bromide, 1.0 g/l tween 20, 2.0 g/l BSA and 7.44 g/l EDTA in PBS to lyse bound PKH67-polymorphonuclear cells. Fluorescence was measured using 485 excitation and 520 emission filters (Fluostar Galaxy, BMG Labtechnologies, Offenburg, Germany).
The blocking potential of anti-FcαRI antibodies and/or sFcαRI and/or peptides that mimic either the IgA binding site on CD89 or the CD89 binding site on IgA was investigated using a 2-dimensional polymorphonuclear cells migration assay as detailed in example 4. For that purpose, PKH67-polymorphonuclear cells were incubated with different concentrations (ranging from 1-100 μg/ml in RPMI) of either anti-FcαRI blocking antibodies or with peptides mimicking the IgA binding site on CD89 for 20 minutes at 37° C. IgA-coated beads were incubated with different concentrations (ranging from 1-100 μg/ml in RPMI) of peptides mimicking the CD89 binding site on IgA for 20 minutes at 37° C. PKH67-polymorphonuclear cells (2.5×10^5 cells/well) that had not been incubated (as control) or PKH67-polymorphonuclear cells that had been incubated with blocking antibodies or peptides were seeded in 96 wells flat bottom plates (Greiner). Either non-incubated IgA-coated beads, or IgA-coated beads that had been incubated with peptides were added (10 μl/well). Cells were then incubated for 20′ at 37° C., after which cell suspensions were collected and beads were washed 2 times with PBS to remove unbound PKH67-polymorphonuclear cells. Beads were incubated with a buffer containing 2.0 g/l hexadecyltrimethyl ammonium bromide, 1.0 g/l Tween 20, 2.0 g/l BSA and 7.44 g/l EDTA in PBS to lyse bound PKH67-polymorphonuclear cells. Fluorescence was measured using 485 excitation and 520 emission filters (Fluostar Galaxy, BMG Labtechnologies, Offenburg, Germany) to determine the number of polymorphonuclear cells that had bound to IgA-coated beads. Percentage blocking was determined using the following equation: 100−(number of bound cells in blocking situation/number of bound cells without blocking×100) %.

The test system of assay [2] is polymorphonuclear cells. Briefly: Human skin migration assay (ex vivo skin graft, IgA-coated beads). The format is cell-based. The following applies: ex vivo mammary skin graft, beads injected intracutaneously, overnight at 37° C. The method, then: A full thickness mammary skin graft (epidermis and dermis) was placed in an ex-vivo tissue incubation chamber (method adapted from Oosterling, S J et al. Ann Surg. 2008; 247(1):85-94). 5 μl of IgA- or BSA-coated beads (17.5 μg/μl) were injected intracutaneously via the dermis, followed by addition of PKH-67 labeled polymorphonuclear cells (4×10^6 cells/well) to the wells. Due to the short half-life of polymorphonuclear cells after isolation, cells were supplemented with IFN-γ (300 units/ml; Boehringer Ingelheim, Alkmaar, The Netherlands). Skin was incubated overnight at 37° C. Biopsies of the injected skin were taken and snap frozen. Sections of biopsies were analysed with bright field and fluorescence microscopy.

Assay [3] has as its system polymorphonuclear cells. Briefly: Chemotaxis assay with supernatants of IgA-bead migration experiments. The following applies: mAb 100 μg/ml; U75302 10 μM in ethanol; 40 minutes at 37° C. The format is cell-based, human. The method, then: B) Supernatant was collected after addition of IgA-beads, and migration of freshly isolated polymorphonuclear cells to collected supernatant was measured in the presence of anti-BLTR1 (LTB4 receptor), anti-IL-8 or an isotype mAb control. Additionally, either an LTB4 receptor antagonist (U75302 in ethanol) or ethanol alone was added. Migration to supernatant in the absence of inhibitors was set at 100%.
Chemotaxis assays were essentially performed as described (Frevert et al., J. Immunol. Methods 213, 41 (1998)), modified for use in a 48 well Neuroprobe blind well chemotaxis chamber (Gaithersburg, Md.). Briefly, bottom wells were filled with supernatants of migration experiments (25 μl), and covered with a 3 μm pore polycarbonate filter (Neuroprobe). Purified LTB4 (Sigma) or IL-8 (Peprotech, Rocky Hill, N.J.) were used as positive controls. Top wells were filled with 50 μl calcein AM-labeled polymorphonuclear cells (1×10^6/ml). After a 40 minutes incubation period at 37° C., cells that had migrated towards the lower compartments were quantified with a fluorimeter (485 excitation/520 emission filters). To inhibit IL-8 mediated migration, experiments were conducted in the presence of 100 μg/ml blocking anti-IL-8 mAb (BD Biosciences). LTB4-mediated migration was investigated by blocking LTB4 receptors with 100 μg/ml anti-BLTR1 mAb (BD Biosciences). […]

Regarding SCMVGHEALPLAFTQCT [PEO-46#7,8], the “blocking of the IgA-CD89 interaction / reduction of polymorphonuclear cell migration to IgA-beads (in words)” value in assay [1] is listed as “provided good results”.

As for YRIGHYRFR, in assay [1], the “blocking of the IgA-CD89 interaction / reduction of polymorphonuclear cell migration to IgA-beads (in words)” value is given as “performed well”.

As for GRYQCQYRIGHYRFRYSD [Sym-060], in assay [1], the “blocking of the IgA-CD89 interaction / reduction of polymorphonuclear cell migration to IgA-beads (in words)” value was “performed somewhat less but was still found useful”.

As to EDLLLGSEA [IgA CH2], the “blocking of the interaction between IgA and CD89” value in assay [1] is “up to 23%”.

Regarding “sFcαRI: soluble form of FcαRI: extracellular part (ecto domain) of FcαRI expressed in 293T cells”, in assay [1], the “blocking of the IgA-CD89 interaction / reduction of polymorphonuclear cell migration to IgA-beads (in words)” value was “efficiently block the interaction”. Moreover, in the assay on polymorphonuclear cells [2], the “migration of polymorphonuclear cells to IgA-coated beads in human skin” value (from here on “migration of polymorphonuclear cells”) was “completely prevent migration”.

Consider `CCCCC/C=C\C[C@@H](O)/C=C/c1cccc(C[C@@H](O)CCCCO)n1` [receptor antagonist, U75302], for which the “chemotactic activity of supernatant of IgA-bead migration experiments” value with polymorphonuclear cells [3] is given as “reduced”.

For the compound REIGRRLKFWNETDP [Fc alpha 113], the “blocking of the interaction between IgA and CD89” value in assay [1] was “up to 19%”.

In the case of “SSMVGHEALPLAFTQKT [PEO-45#7,8, 17-mer stretch (amino acids 431-447) selected from the Fc region of IgA]”, the “migration of polymorphonuclear cells” value with polymorphonuclear cells [2] is given as “completely prevent migration”.

For “GRYQAQYRIGHYRFRYSD [PEO-50#8,9, EF loop peptide (CD89 75-92)]”, the “migration of polymorphonuclear cells” value in the assay on polymorphonuclear cells [2] was “completely prevent migration”.

As to LKFWNETDP, the “blocking of the IgA-CD89 interaction / reduction of polymorphonuclear cell migration to IgA-beads (in words)” value in assay [1] is on record as “performed well”.

In the case of AQAIREAYL, in assay [1], the “blocking of the IgA-CD89 interaction / reduction of polymorphonuclear cell migration to IgA-beads (in words)” value was “performed well”.

These data come from patent US20110104145A1, “METHOD FOR THE TREATMENT OR PROPHYLAXIS OF CHRONIC INFLAMMATORY DISEASES” (priority 2008, published 2011).
